This note sets out measurements from patent publication US20260325538A1, “THERAPY” (priority 2023, published 2026).

This experiment concerns Klebsiella pneumoniae Kpn St147 (NDM-1 and KPC-2). The experiment is described as follows: MIC determination of cefepime with zinc chelator and avibactam (checkerboard, broth microdilution). In kind it is cell-based. As to the method:
Antimicrobial susceptibility testing (AST) by broth microdilution was performed according to The European Committee on Antimicrobial Susceptibility Testing. Reading guide for broth microdilution. Version 4.0, 2022 (see: http://www.eucast.org).
Checkerboard 96-well plates (Corning 3788) were made by conducting serial two-fold dilutions of cefepime in cation-adjusted Mueller Hinton II broth (caMHB; Thermo Scientific, T3462), in columns across the microtiter plate (64-0.03 μg/ml). Additionally, avibactam was added to rows 3 to 8 in concentrations of 64, 16, 8, 4, 1 and 0.25 μg/ml, respectively. The zinc chelator was added to the wells of the plate, where applicable. Three plates were made per experiment, one without the zinc chelator (plate 1), one with 16 μg/ml of the zinc chelator (plate 2) and one with 32 μg/ml of the zinc chelator (plate 3). The first row in all plates was used as a positive control for cefepime only, and the second row included the zinc chelator in addition to cefepime (no avibactam added to rows 1 or 2). The zinc chelator was added at the indicated concentration, to rows 3-8 of plates 2 and 3.
The effect of the combination of zinc chelator/FEP/avibactam was tested on a clinically isolated Klebsiella pneumoniae Kpn St147 actively constitutionally expressing the two resistance mechanisms NDM-1 and KPC-2 simultaneously. As a negative control, bacteria+FEP was tested alone. As a positive control, bacteria+FEP+zinc chelator was used. In Tables 1 and 2, concentrations (μg/ml) of FEP are given in the top row left to right and avibactam concentrations (μg/ml) are given top to bottom in column 1.
The fractional inhibitory concentration (FIC) is defined as the concentration that kills when used in combination with another agent divided by the concentration that has the same effect when used alone. The FIC index (FICI) for the combination of two agents is the sum of their individual FIC values. […] The European Committee for Antimicrobial Susceptibility Testing (EUCAST) of the European Society of Clinical Microbiology and Infectious Diseases (ESCMID) 2000 adopts the following definitions to determine the susceptibility of bacteria to an antimicrobial agent (see EUCAST Definitive Document E. Def 1.2: Terminology relating to methods for the determination of susceptibility of bacteria to antimicrobial agents. Clin. Microbiol. Infect. 2000; 6(9): 503-508): • FICI value≤0.5; synergy • 0.5<FICI value≤1; additive effect • 1<FICI value≤2; indifferent effect • FICI≥2; antagonistic effect
To test for synergy, all data were subjected to the following formula in which A=zinc chelator; B=cefepime; and C=avibactam:
ΣFICI=MICA(combination)/MICA (alone)+MICB(combination)/MICB (alone)+MICC(combination)/MICC (alone)

Regarding `CN(C[C@H](O)[C@@H](O)[C@H](O)[C@H](O)CO)C(=O)c1ccc(CN(Cc2ccccn2)Cc2ccccn2)nc1` [zinc chelator], the “FICI Zinc Chelator” value (zinc chelator 8 μg/mL, with FEP and avibactam) was determined as 0.004. Further, the “amplification of the inhibitory effect” value (zinc chelator at 16 μg/ml, with cefepime and avibactam) is “about 16 fold”.
